Molecules are shown by their SMILES.

One series can be described thus: Solubility measurement of charge control agent in methanol. The format is physicochemical. The note with it: stirred 1 hour at 50° C., cooled to room temperature, 0.1 μm-filter, absorbance vs 20 ppm standard. How it is done: The solubility of the charge control agent may be measured in the following manner.
<Solubility measurement of charge control agent>
2 g of a charge control agent is weighed and placed in a 300 ml Erlenmeyer flask to which 100 ml of methanol is added. The system is heated to 50° C. under stirring and the stirring is further continued for 1 hour (when all the charge control agent is dissolved, the charge control agent is further added successively at an increment of 2 g each under continued stirring). Then, the system is cooled to room temperature and the insoluble charge control agent is removed by a 0.1 μm-filter to measure the absorbance (A) of the solution at a maximum absorption wavelength by using a spectrophotometer.
wherein I denotes a transmitted light intensity through a solution, I0 denotes a transmitted light intensity through a solvent (=methanol), ε0 denotes an absorption coefficient, C denotes the concentration of the charge control agent, and d denotes the thickness of the solution for the absorbance measurement.
On to `Cc1ccccc1NC(=O)c1cc2ccccc2c2c1[O][Fe]1([O]c3cc(Cl)c([N+](=O)[O-])cc3/N=N/2)[O]c2cc(Cl)c([N+](=O)[O-])cc2/N=N/c2c(c(C(=O)Nc3ccccc3C)cc3ccccc23)[O]1` [Complex (5)], for which the “SMeOH (solubility in methanol)” value is listed as “SMeOH = 0.65 g/100 ml)”.
Regarding `O=C(Nc1cccc([N+](=O)[O-])c1)c1cc2ccccc2c2c1[O][Fe]1([O]c3c(cc(Cl)cc3[N+](=O)[O-])/N=N/2)[O]c2c(cc(Cl)cc2[N+](=O)[O-])/N=N/c2c(c(C(=O)Nc3cccc([N+](=O)[O-])c3)cc3ccccc23)[O]1` [Complex (4)], the “SMeOH (solubility in methanol)” value was “SMeOH = 0.65 g/100 ml)”.
Take `O=C(Nc1cccc([N+](=O)[O-])c1)c1cc2ccccc2c2c1[O][Fe]1([O]c3ccc(Cl)cc3/N=N/2)[O]c2ccc(Cl)cc2/N=N/c2c(c(C(=O)Nc3cccc([N+](=O)[O-])c3)cc3ccccc23)[O]1` [Complex (3)]: the “SMeOH (solubility in methanol)” value is recorded as “SMeOH = 0.71 g/100 ml)”.
The same measure, in the same setting: in the case of `O=C(Nc1ccccc1)c1cc2ccccc2c2c1[O][Fe]1([O]c3ccc(Cl)cc3N=N2)[O]c2ccc(Cl)cc2N=Nc2c(c(C(=O)Nc3ccccc3)cc3ccccc23)[O]1` (stereo not shown) [Complex (1)] it was “SMeOH = 0.87 g/100 ml)”; in that of `O=C(Nc1ccccc1)c1cc2ccccc2c2c1[O][Fe]1([O]c3c(Cl)cc(Cl)cc3N=N2)[O]c2c(Cl)cc(Cl)cc2N=Nc2c(c(C(=O)Nc3ccccc3)cc3ccccc23)[O]1` (stereo not shown) [Complex (2)], “SMeOH = 0.75 g/100 ml)”; in that of `Cc1ccccc1NC(=O)c1cc2ccccc2c2c1[O][Fe]1([O]c3ccccc3N=N2)[O]c2ccccc2N=Nc2c(c(C(=O)Nc3ccccc3C)cc3ccccc23)[O]1` (stereo not shown) [Complex (6)], “SMeOH = 0.76 g/100 ml)”.

The series is the same for the next values; noted with them: stirred 1 hour at 50° C., cooled to room temperature, 0.1 μm-filter, absorbance vs 20 ppm standard, listed as Azo-type iron complex (1).
For the molecule `O=C(Nc1ccccc1)c1cc2ccccc2c2c1[O][Fe]1([O]c3ccc(Cl)cc3N=N2)[O]c2ccc(Cl)cc2N=Nc2c(c(C(=O)Nc3ccccc3)cc3ccccc23)[O]1` (stereo not shown) [Complex (1)], the “SMeOH (solubility in methanol)” value is given as 0.87 g/100 ml).
